{"source": "patent US20150168386A1", "about": "“METHOD AND SYSTEM FOR IDENTIFYING LEAKY LUNG EPITHELIAL BARRIER” (priority 2013, published 2015)", "key": {"[1]": {"system": "16HBE cells", "assay": "flux of mannitol across human bronchial epithelial monolayers", "format": "in vitro ADME", "settings": "16HBE cells confluent on semipermeable membrane; lower chamber after 1 hour, colorimetric assay; unstimulated or PolyI:C pretreated 18 hours", "procedure": "The x-axis indicates the concentration of mannitol applied to the upper chamber of 16HBE cells grown to confluence on a semipermeable membrane. The y-axis indicates the concentration of mannitol detected in the lower chamber after 1 hour, determined using a colorimetric assay (where OD refers to optical density). 16HBE cells were either unstimulated (open bars) or pretreated with the viral mimetic PolyI:C (closed bars) for 18 hours prior to analysis of mannitol permeability. Note that in both unstimulated and PolyI:C-stimulated cells, the mannitol concentration detected in the lower chamber increased steadily with the concentration of mannitol applied to the top chamber (i.e. there was no plateau). This is indicative of movement across the monolayer via paracellular routes (as opposed to receptor mediated transport, for example)."}, "[2]": {"set-up": "species or system C57BL/6 mice", "settings": "mouse, in vivo", "text": "In this experiment, 6-8 week old C57BL/6 mice were infected with a clinical isolate of RSV 9 (strain A2) intranasally (i.n.) on day 0 (d0), and then challenged with orally inhaled mannitol on days 2 and 4 as indicated by the arrows in the schematic (top of figure). Two hours after each mannitol inhalation, urine was collected from mice by scruffing, and analyzed for mannitol using a colorimetric assay. They are expressed as fold change in urine mannitol relative to uninfected control mice on d0, which was set at 1. Data are mean±standard error of the mean, of n=5-6 mice per group. * indicated p<0.05."}, "[3]": {"assay": "urinary mannitol clearance after inhaled mannitol in human subjects", "format": "in vivo", "settings": "635 mg inhaled mannitol; urine over 24 hours, mass spectrometry; 6 subjects with asthma symptoms vs 2 healthy controls", "text": "Results are expressed as urinary mannitol clearance, or the concentration in the urine samples collected multiplied by the amount of urine produced. […] The horizontal bar indicates mean values."}}, "data": [{"compound": "OC[C@@H](O)[C@@H](O)[C@H](O)[C@H](O)CO", "note": "[mannitol]", "values": [{"measurement": "flux of mannitol across the monolayer", "setting": "[1]", "value": "non-saturable"}, {"measurement": "excretion of orally inhaled mannitol (fold change in urine mannitol relative to uninfected control mice on d0)", "setting": "[2]", "value": "higher in mice infected with respiratory syncytial virus (RSV) infection"}, {"measurement": "urinary mannitol clearance", "setting": "[3]", "value": "Subjects with asthma symptoms had higher mannitol clearance on average"}]}]}
